# B1: ligE1: N. aromaticivorans putative beta-etherase polypeptide, glutathione S-transferase-like protein, expressed in E. coli (protein)
# chain: MAANNTITFYDLALSTGATISPFVWATKYALKHKGFDLDVVPGGFTGILERTGGKTERLPAIVDDGEFVLDSWGIVEYLDAKYPDRPVLIPHESVAATLKALDNWFWNAAVGPWMFCFCQDYRDLSLPQDHEYVTHSREKMLGRKLEEVQAGREERLPKISAALEPLRAALAQHQWLGGSSPNYADYRIMGGILFTASVCKTPVLANDDPLRDWIERCLDLYGGLGRHPGLFPLFGLEQREGDPDLFNRAAGQGGIYKRNTGPESTRAETQRITEGMKK
# B2: LigF2: N. aromaticivorans putative beta-etherase polypeptide, glutathione S-transferase-like protein (protein)
# chain: MALKYYHAEPLANSLKSMVPLKEKGLAYESIYVDLHKFEQHQPWFTAINPEGQVPVLDHDGTIITHTTVINEYLEDAFPDAQPADAPLRPRDPVGAARMRYWNKFIDEHVMNYVSMHGWHRMVGVIARNIASGDFEKLLESIPLPDQRKKWATARSGFSEADLANATAKIEYALDKVEKQLGETKWLAGDTYTLADINFYSHCGAMVERMFPEMEVARRAPRLCEWRDRVAARPAVAEALKSEDRTAPGLRVWSGEVR
# B3: ABD27309.1: N. aromaticivorans putative beta-etherase polypeptide (protein)
# chain: MDEVSLYHWEPNANSGKPMLALMEKGVPFSSHYIDMLQFDQHKPEYLAINPQGTIPAMTHNGQVLTESTAIMEYVNDRFDGPDLMPADAQDRWRVRWWMKFMDQWLGPSFSMIGWSVFVGPMVRQRDPAELAAAIDRIPLPERRTAWRKAINGDFSESEMAESRRRVGLGIAKLEEELGKRPYVGSNQYSLADINIFNSTYSLPISQPDLAGKDRTPNIMRWLKRVYTREAVKKTWAMGKTDLAHRYGLIMAEIEG
# B4: ABD26530.1: N. aromaticivorans putative beta-etherase polypeptide (protein)
# chain: MVIPLGEDNTIMLKLYSFGPAANSMKPLLTVFEKGLDVEKHRLDPAKFEHHTDWFKAINPRGQVPALVDGDKVVTESTVICEYLEDEYPTEVALRPADSFGKAQMRIWTKWVDEYFCWCVSTIGWHRYVGNMVKSLSDAEFEEKVKAIPVIEQQVKWRRAREGFPQDMLDEEMRKIAYSVRKLDDHLADHEWLVPGQYTLADICNFAIANGMQFGFAELVNKQDTPHLVRWIEQINERPAVKQMFAQVELEKLGPRE
# B5: LigF: S. paucimobilis beta-etherase, positive control polypeptide (protein)
# chain: MTLKLYSFGPGANSLKPLATLYEKGLEFEQVFVDPSKFEQHSDWFKKINPRGQVPALWHDGKVVTESTVICEYLEDVFPESGNSLRPADPFKRAEMRVWTKWVDEYFCWCVSTIGWAFGIKAIAQKMSDEEFEEHINKNVPIPEQQLKWRRARNGFPQEMLDEEFRKVGVSVARLEETLSKQDYLVDTGYSLADICNFAIANGLQRPGGFFGDYVNQEKTPGLCAWLDRINARPAIKEMFEKSKREDLLKRQNEKVA
# B6: ligE: S. paucimobilis beta-etherase, positive control polypeptide (protein)
# chain: MARNNTITLYDLQLESGCTISPYVWRTKYALKHKGFDIDIVPGGFTGILERTGGRSERVPVIVDDGEWVLDSWVIAEYLDEKYPDRPMLFEGPTQKNLMKFLDNWLWSTAVGPWFRCYILDYHDLSLPQDRDYVRWSREQWFLGGQRLEDVQAGREDRLPLVPPTLEPFRRILAETKWLGGDQPNFADYSALAVFLWTASVARTPPLTEDDPLRDWLDRGFDLFDGLGRHPGMNPLFGLKLREGDPEPFVRQTGPAGAGGQALNKGPQTTKMPPRVAEKAD
# B7: LigG: S. paucimobilis glutathione-eliminating glutathione S transferase gene product (protein)
# chain: MSGASARSLGKGSAPPGPVPEGQIRVYSMRFCPFAQRTLMVLKAKGIRHEIININLKNKPEWFFEKNPFGLVPVLENTQGHLITESVITCEYLDEAYPEKKLFPDDPYEKACQKMTFELFSKVPSLVTSFIRAKRKEDHPGIKEELKKEFSKLEEAMANKRTAFFGGNSLSMIDYLIWPWFQRLEALELNECIDHTPKLKLWMATMQEDPVASSHFIDAKTYRDYLSLYLQDSPEACDYGL
# System: not listed separately
# Assay: in vitro beta-etherase biochemical assay on fluorescent substrate MUAV (4MU fluorescence), clarified E. coli cell extracts
# Settings: 0.1 mM MUAV substrate
# Source text: The model substrate synthesis 150 for use in the biochemical screening for selective activity can be outsourced through a contract research organization (CRO). The enzyme discovery effort can initially be focused on identifying potential beta-etherase candidate genes identified through bioinformatic methods. […] The fluorescent substrate α-O-(β-methylumbelliferyl) acetovanillone (MUAV), for example, can be used in in vitro assays to identify beta-etherase function (Acme Biosciences, Mt. View, Calif.). The formation of 4 methylumbelliferone (4MU) upon hydrolysis of the aryl ether bond can be monitored by fluorescence, for example, at λex=365 nm and λem=450 nm (or 460 nm).
# The enzyme screening 155 is done to identify novel etherases 160. […] Expression of the beta-etherase genes can be done in 5 ml or 25 ml samples of the recombinant E. coli strains in LB medium using induction with IPTG. Following induction, and cell harvest, cell pellets can be be lysed using the BPER (Invitrogen) cell lysis system. […] The formation of 4 methylumbelliferone (4MU) upon hydrolysis of the aryl ether bond in MUAV can be monitored by fluorescence at λex=365 nm and λem=460 nm, and can provide quantitative measurement of beta-etherase function. Cell extracts of E. coli transformed with the S. paucimobilis ligE and ligF genes can be the assay positive controls. Test or unknown samples can include, for example, E. coli strains expressing putative beta-etherase genes from N. aromaticovorans.
# This example describes a method for gene expression in E. coli, as well as beta-etherase biochemical assays. Expression of known and putative beta-etherase genes was performed using 5 ml cultures of the recombinant E. coli strains described herein in Luria Broth medium by induction of gene expression using isopropylthiogalactoside (IPTG) to a final concentration of 0.1 mM. Following induction, and cell harvest, the cells were disrupted using either sonication or the BPER (Invitrogen) cell lysis system.
# In vitro reactions were performed in a total volume of 200 ul and contained: 25 mM TrisHCl pH 7.5; 0.5 mM dithiothreitol; 1 mM glutathione; 0.05 mM or 0.1 mM MUAV; 10 ul of clarified cell extract used to initiate the reactions. Following incubation for 2.5 hours at room temperature, a 50 ul sample of the reactions was terminated using 150 uL of 300 mM glycine/NaOH buffer pH 9. The formation of 4 methylumbelliferone (4MU) upon hydrolysis of the aryl ether bond was monitored by the increase in fluorescence at λex=360 nm and λem=450 nm using a Spectramax UV/visible/fluorescent spectrophotometer.
# The total protein concentrations of the cell lysates were determined using the BCA reagent system for protein quantification (Pierce).
row,Molecule,fold more efficient than S. paucimobilis ligE beta-etherase enzyme
1,B1,approximately 75 fold

# Same assay, conditions: MUAV substrate; result in words
row,Molecule,beta-etherase activity
1,B2,beta-etherase activity
2,B1,beta-etherase activity
3,B3,beta-etherase activity
4,B4,beta-etherase activity

# System: Escherichia coli
# Assay: not given
# Settings: demonstrated; result in words; cited from earlier work
row,Molecule,antibacterial activity against Escherichia coli
1,"O=Cc1ccc(O)c(O)c1O [2,3,4-trihydroxybenzaldehyde]",antibacterial activity
2,O=Cc1ccccc1O [2-hydroxybenzaldehyde],antibacterial activity
3,"O=Cc1cc(O)ccc1O [2,5-dihydroxybenzaldehyde]",antibacterial activity
4,"COc1cc(O)cc(OC)c1C=O [4-hydroxy-2,6-dimethoxybenzaldehyde]",antibacterial activity
5,"O=Cc1ccc(O)cc1O [2,4-dihydroxybenzaldehyde]",antibacterial activity
6,"O=Cc1c(O)cc(O)cc1O [2,4,6-trihydroxybenzaldehyde]",antibacterial activity
7,COc1cccc(C=O)c1O [2-hydroxy-3-methoxybenzaldehyde],antibacterial activity
8,COc1ccc(O)c(C=O)c1 [2-hydroxy-5-methoxybenzaldehyde],antibacterial activity
9,"O=Cc1cccc(O)c1O [2,3-dihydroxybenzaldehyde]",antibacterial activity

# Same assay, conditions: known; result in words; cited from earlier work
row,Molecule,antimicrobial activity against Escherichia coli
1,O=Cc1ccc(CO)o1 [5-hydroxymethylfurfural],antimicrobial activity
2,O=Cc1ccc(O)cc1 [4-hydroxybenzaldehyde],antimicrobial activity
3,COc1cc(C=O)ccc1O [vanillin],antimicrobial activity
4,O=Cc1ccco1 [furfural],antimicrobial activity
5,COc1cc(C=O)cc(OC)c1O [syringaldehyde],antimicrobial activity

# System: Saccharomyces cerevisiae
# Assay: not given
# Settings: result in words; cited from earlier work
row,Molecule,antifungal activities against the yeast Saccharomyces cerevisiae
1,COc1cc(CCC(C)=O)ccc1O [vanillylacetone],significant antifungal activities
2,O=C(O)/C=C/c1ccccc1O [o-coumaric acid],significant antifungal activities
3,O=C(O)/C=C/c1cccc(O)c1 [m-coumaric acid],significant antifungal activities
4,O=C(O)C=Cc1ccccc1 [cinnamic acid],significant antifungal activities
5,COc1cc(C(=O)O)ccc1O [vanillic acid],significant antifungal activities
6,O=C(O)/C=C/c1ccc(O)cc1 [p-coumaric acid],significant antifungal activities
7,COc1ccc(C=O)cc1OC [Veratraldehyde],significant antifungal activities

# System: not given
# Assay: not given
# Settings: FIG. 2B, S. paucimobilis LigDFEG gene cluster; result in words; cited from earlier work
row,Molecule,enzyme activity of gene product
1,LigD: S. paucimobilis C alpha-dehydrogenase gene product [reference compound],Cα-dehydrogenase activity
2,B5,β-etherase activity
3,B6,β-etherase activity
4,B7,glutathione lyase activity
